Experiments:
U87-TxR cells [1] = assay: Combination with PTX, MTT assay; assay type: cell-based, human; conditions: for combination index (CI) with PTX: CalcuSyn, 0.5-2 µM compound with 0.1-0.5 µM PTX, 72 h, CI < 1 synergistic
Method: Cell viability was measured using the colorimetric MTT assay based on the reduction of MTT into formazan dye. Cell lines were seeded into 96-well cell culture plates (4000 cells/well) in appropriate medium. After overnight incubation, cells were treated with increasing concentrations of 1, 2, 3, 4, 5, and 6 (0.5, 1, 2, 4, and 8 µM). After 72 h treatment, MTT solution (4 mg/mL) was added and plates were incubated at 37 °C with 5% CO2 for 3 h. After incubation, formazan crystals were dissolved using 100 µL DMSO, resulting in a purple color. The absorbance was measured at 570 nm with a reference wavelength of 690 nm using an automated microplate reader (MultiskanSky, Thermo Scientific, USA). The IC50 values were determined by non-linear regression analysis in GraphPad Prism 8.0.2. software (GraphPad Software, Boston, MA, USA).
The combined effects of 2 and 5 with PTX were studied in U87-TxR cells by MTT assay as previously described. In simultaneous treatments that lasted 72 h, three concentrations of 2 and 5 (0.5, 1, and 2 µM) were combined with three concentrations of PTX (0.1 μM, 0.2 μM, and 0.5 μM). Drug combination effects were evaluated using the Chou–Talalay method, which calculates the combination index (CI) value for the degree of interaction between the drugs. This method allows quantitative assessment of synergism (CI < 1), additivity (CI close to 1), or antagonism (CI > 1) across a range of dose–effect relationships. Calcusyn® version 1.1 software was used for data analysis (Biosoft, Cambridge UK). Three data points were used for each single drug in each designed experiment. The non-constant ratio combination was chosen to assess the effect of both drugs in combination. The results are presented in a fraction-affected CI graph.

U87-TxR cells [2] = assay: Cell death detection, AV/PI staining, U87-TxR; assay type: cell-based, human; conditions: 48 h; for cell death effect in MDR U87-TxR cells vs sensitive U87 cells: 4 µM, AV/PI; for percentage of early apoptotic cells vs untreated: 2 µM and 4 µM, particularly at 4 µM
Method: To evaluate the extent of cell death upon treatment with adamantane–sclareol hybrids, apoptotic, necrotic, and viable cell populations were assessed using dual staining with AV/PI. U87 and U87-TxR cells were seeded in 6-well plates at a density of 150,000 cells per well and incubated overnight. Subsequently, cells were treated with 2 and 5 (2 µM and 4 µM) for 48 h. At the end of the treatment period, cells were collected (both adherent and floating), washed, and incubated with AV/PI in binding buffer. Samples were analyzed using a CytoFLEX flow cytometer (Beckman Coulter, Indianapolis, IN, USA), with fluorescence signals detected at 525 nm (AV) and 585 nm (PI). At least 10,000 events were recorded per each condition. The percentages of viable (AV^− PI^−), early apoptotic (AV^+ PI^−), late apoptotic (AV^+ PI^+), and necrotic (AV^− PI^+) cells were calculated using CytExpert 2.4.0.28 software (Beckman Coulter, Indianapolis, IN, USA).

[3] = tested on: ASK1 protein in U87-TxR cells; assay: ASK1 protein expression by flow cytometry, U87-TxR; assay type: cell-based, human; conditions: 48 h; for ASK1 protein levels: 2 µM and 4 µM
Method: Flow cytometry was used to assess TrxR1 and ASK1 protein expression in the U87 and U87-TxR cell lines. Cells were seeded and allowed to attach overnight before exposure to compounds 2 and 5 at final concentrations of 2 μM and 4 μM. After 48 h treatment, cells were collected by trypsinization, rinsed with PBS, and subsequently fixed in 4% PFA for 10 min at room temperature. For permeabilization, ice-cold absolute methanol was added, and the samples were maintained at −20 °C overnight. Following this step, cells were washed in PBS and incubated for 1 h in 0.5% BSA/PBS to block nonspecific binding. Pelleted cells were then resuspended in primary antibodies diluted in 0.5% BSA/PBS [(ASK1, 1:200 (ab45178, Abcam, Cambridge, UK); TrxR1, 1:500 (ab124954, Abcam, Cambridge, UK)] and incubated overnight at +4 °C. Cells were then washed in PBS and incubated for 1 h at room temperature in the dark with fluorescently labeled anti-rabbit IgG secondary antibody (Alexa Fluor 488, ab150097, Abcam, Cambridge, UK), diluted 1:1000 in 0.5% BSA/PBS. Following incubation, samples were washed, resuspended in cold PBS, and analyzed by flow cytometry. A minimum of 10,000 events per sample were acquired, and fluorescence was detected in a green fluorescence channel (525 nm). Data acquisition and processing were performed using CytExpert software (version 2.4.0.28; Beckman Coulter, Indianapolis, IN, USA).

P-gp (U87-TxR cells) = target: T1, P-gp (U87-TxR cells) (Homo sapiens, UniProt P08183); assay: Rhodamine 123 accumulation assay; assay type: cell-based; conditions: highest concentration, 30 min
T1 construct: Studies were carried out with 2, 5, and TQ in U87-TxR cells with P-gp overexpression; endogenous in cells; host or cells: U87-TxR (paclitaxel-selected from U87)
T1 sequence (P08183 whole entry): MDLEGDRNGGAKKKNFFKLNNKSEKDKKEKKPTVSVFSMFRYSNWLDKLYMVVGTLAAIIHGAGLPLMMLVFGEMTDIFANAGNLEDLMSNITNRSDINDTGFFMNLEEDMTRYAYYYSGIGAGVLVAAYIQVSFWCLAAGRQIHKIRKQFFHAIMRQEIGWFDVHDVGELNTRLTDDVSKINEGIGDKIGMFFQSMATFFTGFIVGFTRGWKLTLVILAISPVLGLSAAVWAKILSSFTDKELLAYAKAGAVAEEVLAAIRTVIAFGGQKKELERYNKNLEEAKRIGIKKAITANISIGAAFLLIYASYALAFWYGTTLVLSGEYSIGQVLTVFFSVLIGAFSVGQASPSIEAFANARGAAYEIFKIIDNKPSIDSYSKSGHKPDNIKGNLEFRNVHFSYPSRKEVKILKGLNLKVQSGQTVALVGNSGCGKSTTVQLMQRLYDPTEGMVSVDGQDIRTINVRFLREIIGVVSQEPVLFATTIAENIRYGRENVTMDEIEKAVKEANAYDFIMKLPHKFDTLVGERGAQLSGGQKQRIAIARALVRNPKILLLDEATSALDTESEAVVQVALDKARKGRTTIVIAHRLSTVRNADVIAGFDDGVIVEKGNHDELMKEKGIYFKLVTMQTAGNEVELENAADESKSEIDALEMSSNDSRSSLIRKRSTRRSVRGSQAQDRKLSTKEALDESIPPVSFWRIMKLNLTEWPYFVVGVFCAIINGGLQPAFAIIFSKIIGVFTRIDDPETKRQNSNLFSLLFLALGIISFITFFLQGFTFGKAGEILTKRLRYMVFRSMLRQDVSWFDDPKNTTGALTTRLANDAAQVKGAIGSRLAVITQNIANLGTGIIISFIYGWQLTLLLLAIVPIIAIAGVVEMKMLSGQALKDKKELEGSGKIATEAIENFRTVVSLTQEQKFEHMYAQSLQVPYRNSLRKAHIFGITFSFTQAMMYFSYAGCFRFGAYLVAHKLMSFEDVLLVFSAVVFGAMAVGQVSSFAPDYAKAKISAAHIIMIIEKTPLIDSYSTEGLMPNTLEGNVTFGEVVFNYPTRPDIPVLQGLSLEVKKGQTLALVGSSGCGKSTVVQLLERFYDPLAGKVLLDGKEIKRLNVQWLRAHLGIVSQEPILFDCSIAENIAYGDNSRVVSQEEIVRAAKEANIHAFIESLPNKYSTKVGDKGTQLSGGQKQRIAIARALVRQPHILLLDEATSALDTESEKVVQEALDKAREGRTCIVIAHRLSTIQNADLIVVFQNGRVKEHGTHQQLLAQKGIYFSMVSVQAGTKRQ
Method: Studies were carried out with 2, 5, and TQ in U87-TxR cells with P-gp overexpression. Sensitive U87 cells were used as a positive control for Rho 123 accumulation. U87-TxR cells were seeded in 6-well plates at a density of 100,000 cells/well and incubated overnight. Then, the cells were treated with 1 μM and 2 μM of compounds 2 and 5 for 24 h, 48 h, and 72 h. Thereafter, cells were incubated with 2 μM Rho 123 for an additional 30 min at 37 °C in 5% CO2. In another experimental setting, 2 μM Rho123 was simultaneously applied with increasing concentrations of 2 or 5 (1 μM, 2 μM, and 4 μM) for 30 min. At the end of the accumulation period, the samples were washed twice, resuspended in 1 mL of cold PBS, and analyzed using a CytoFLEX flow cytometer (Beckman Coulter, Indianapolis, IN, USA). The fluorescence was read in a green fluorescence channel (525 nm). At least 10, 000 events were assayed for each sample. Data were analyzed using CytExpert 2.4.0.28 software (Beckman Coulter, Indianapolis, IN, USA).

[4] = tested on: H2O2 and peroxynitrite anion levels in U87-TxR cells; assay: ROS detection by DHR, U87-TxR; assay type: cell-based, human; conditions: 4 µM, 24 h and 48 h
Method: The levels of ROS were measured in U87 and U87-TxR cells by flow cytometry. The production of superoxide anions was detected using DHE fluorescence dye, while production of H2O2 and peroxynitrite anions was detected using DHR fluorescence dye. Cells were seeded in 6-well plates (150,000 cell/well) and incubated overnight. The cells were then treated with compounds 2 or 5 (4 μM) for 24 h and 48 h. CDDP (10 μM) was used as a positive control. After the treatment period, the cells were stained with DHE or DHR for 30 min in the dark. Following incubation, cells were harvested with trypsinization and washed twice in cold phosphate buffer solution (PBS). Fluorescence was measured on a CytoFlex flow cytometer (Beckman Coulter, Indianapolis, IN, USA). Green fluorescence from the oxidized DHR dye was detected at 525 nm, while the red fluorescence from ethidium derived from DHE was detected at 585 nm. At least 10,000 events were assayed for each sample. The results were analyzed by CytExpert 2.4.0.28 software (Beckman Coulter, Indianapolis, IN, USA).

Row | SMILES | Relative Reversal (U87-TxR cells [1]; 0.5 µM of the compound) | Relative Reversal (U87-TxR cells [1]; 1.0 µM of the compound) | Relative Reversal (U87-TxR cells [1]; 2.0 µM of the compound) | combination index (CI) with PTX (U87-TxR cells [1]) | cell death effect in MDR U87-TxR cells vs sensitive U87 cells (U87-TxR cells [2]) | percentage of early apoptotic cells vs untreated (U87-TxR cells [2]) | ASK1 protein levels [3] | Rho 123 accumulation vs TQ (50 nM) (P-gp (U87-TxR cells)) | DHR fluorescence (H2O2 and peroxynitrite anion levels) [4] | early apoptotic population (AV+ PI−) (U87-TxR cells [2]; untreated cells 4.17%, Figure S3) [%] | ASK1 expression ([3]; 4 µM, not statistically significant)
1 | CC1(C)CCC[C@]2(C)[C@@H](CC[C@@](C)(O)/C=C/c3ccc(CNCCCCCCCCNCC45CC6CC(CC(C6)C4)C5)s3)[C@](C)(O)CC[C@@H]12 [Compound 2] | 1.75 | 1.68 | 3.05 | < 1 | significantly better effects in MDR U87-TxR cells | significant increase | increased | comparable to TQ | increase in DHR fluorescence | – | –
2 | CC1(C)CCC[C@]2(C)[C@@H](CC[C@@](C)(O)/C=C/c3ccc(CNCCCCCCCCNCC45CC6CC(CC(C6)C4)C5)o3)[C@](C)(O)CC[C@@H]12 [Compound 5] | 0.86 | 1.85 | 1.76 | < 1 | significantly better effects in MDR U87-TxR cells | significant increase | increased | comparable to TQ | increase in DHR fluorescence | 32.6 | slightly increased
